Measurements as given in patent US20240085426A1, “TRIPLE QUADRUPOLE-BASED MULTIPLE REACTION MONITORING FOR CLINICAL THERAPEUTIC RESPONSE PREDICTION IN CANCER” (NATIONAL CANCER CENTER, priority 2020, published 2024).

Legend:
KATO-III cell line = assay: 72-hour MTT experiment in KATO-III gastric cancer cell line; assay type: cell-based; conditions: Homo sapiens, FGFR2-amplified cell line
SNU-5 cells = assay: 72-hour MTT experiment in SNU-5 gastric cancer cell line; assay type: cell-based; conditions: Homo sapiens, SNU-5, MET-amplified cell line

Row | SMILES | IC50 (KATO-III cell line) [nM] | IC50 (SNU-5 cells) [nM]
1 | C[C@@H](Oc1cc(-c2cnn(C3CCNCC3)c2)cnc1N)c1c(Cl)ccc(F)c1Cl [crizotinib] | 22.6 | 17.5
2 | COCc1c(-c2cc3cc(C)cc(OC)c3s2)c2c(N)ncnn2c1CN1CCNC(=O)C1 [rogaratinib] | 31 | > 40
